From patent publication US9139502B2, “Use of an urushiol compound in preparation of pharmaceutical compositions for inhibiting Smad3 phosphorylation” (Southern Hospital, Southern Medical University, priority 2013, dated 2015) come the findings set out here.

In one experiment the test system is Smad7. Put plainly: Western blot of Smad7 expression in vitro. Type of experiment: cell-based, rat. Particulars: NRK52E and NRK49F cells, GQ-5 2.5 nM pre-treated 1 h, TGF-β1 10 ng/ml 1 h. As for the experimental part:
NRK52E and NRK49F cells were cultured in DMEM-Ham's medium (Gibco, Life Techologies, NY, USA) supplemented with 10% fetal bovine serum (Gibco, Life Techologies, NY, USA). The cells reached at approximately 50% confluence were used for in vitro experiments. Cells were serum-starved for 12 h, and randomized into 4 groups: (1) Controls; (2) GQ-5 only; (3) TGF-β1 only; (4) TGF-β1+GQ-5
(§1) (2) GQ-5 only: pre-treated with GQ-5 (2.5 μM) for 1 h, followed with DMEM for 1 h
(§2) (3) TGF-β1 only: pre-treated with DMSO (0.1%) for 1 h, followed with TGF-β1 (10 ng/ml) for 1 h
(4) TGF-β1+GQ-5: pre-treated with GQ-5 (2.5 nM) for 1 h, followed with TGF-β1 (10 ng/ml) for 1 h
GQ-5 was dissolved in DMSO. Cells were treated as described. cell lysates were immunoblotted with antibodies against Smad4, Smad7, phospho-p38, p38, phospho-PI3K, PI3K, phosphor-ERK, and ERK.
A general note: In western blotting, separated proteins are transferred to a membrane and probed.

For another experiment, the system named is PI3K. Put plainly: Western blot of PI3K phosphorylation in UUO kidneys. Particulars: UUO rats, GQ-5 40 mg/kg daily i.p. right after UUO, sacrificed day 14. Type of experiment: in vivo, rat. As to the method: Male Sprague-Dawley rats with body weight 200 to 250 g were randomized into 3 groups (n=6 in each group): (1) sham operated rats; (2) UUO rats; (3) UUO+GQ-5 rats.
(§3) GQ-5 was dissolved in 5% propylene glycol.
(3) UUO+GQ-5 rats: daily intraperitoneal injection of GQ-5 (40 mg/kg body weight) right after UUO;
UUO was performed using an established protocol as described. GQ-5 was dissolved in 5% propylene glycol. Rats were administrated with GQ-5 as described before. All the rats were sacrificed 14 days after UUO. Western blot analyses were performed to examine the Smad4, Smad7 expression and p38, PI3K, ERK phosphorylation.

The subject of a further experiment is Smad2 phosphorylation. Nature of the experiment: Smad2 phosphorylation in kidney tissue of UUO rats (immunohistochemistry, Western blot). Type of experiment: in vivo, rat. Particulars: GQ-5 40 mg/kg daily i.p. right after or 7 days after UUO, sacrificed day 14. As to the method: (§4) Male Sprague-Dawley rats with body weight 200 to 250 g were randomized into 4 groups (n=6 in each group): (1) sham operated rats; (2) UUO rats; (3) UUO+GQ-5 d1 rats; (4) UUO+GQ-5 d7 rats.
as §3
(§5) (3) UUO+GQ-5 d1 rats: daily intraperitoneal injection of GQ-5 (40 mg/kg body weight) right after UUO;
(§6) (4) UUO+GQ-5 d7 rats: daily intraperitoneal injection of GQ-5 (40 mg/kg body weight) 7 days after UUO.
(§7) UUO was performed using an established protocol as described. GQ-5 was dissolved in 5% propylene glycol. Rats were administrated with GQ-5 as described before. All the rats were sacrificed 14 days after UUO. Immunohistochemical staining and Western blot analyses were performed to examine the Smad3 and Smad2 phosphorylation in kidney tissue.

For experiment [1], the system named is Smad3 phosphorylation. Nature of the experiment: Western blot of TGF-β1-induced Smad3 phosphorylation in vitro. Type of experiment: cell-based, rat. As to the method: NRK52E and NRK49F cells were cultured in DMEM-Ham's medium supplemented with 10% fetal bovine serum. The cells reached at approximately 50% confluence were used for in vitro experiments. Cells were serum-starved for 12 h, and randomized into 6 groups: (1) Controls; (2) GQ-5 only; (3) TGF-β1 only; (4) TGF-β1+GQ-5 0.1 μM; (5) TGF-β1+GQ-5 0.5 μM; (6) TGF-β1+GQ-5 2.5 μM.
as §1, §2
(4) TGF-β1+GQ-5 0.1 μM: pre-treated with GQ-5 (0.1 μM) for 1 h, followed with TGF-β1 (10 ng/ml) for 1 h
(5) TGF-β1+GQ-5 0.5 μM: pre-treated with GQ-5 (0.5 μM) for 1 h, followed with TGF-β1 (10 ng/ml) for 1 h
(6) TGF-β1+GQ-5 2.5 μM: pre-treated with GQ-5 (2.5 μM) for 1 h, followed with TGF-β1 (10 ng/ml) for 1 h.
GQ-5 was dissolved in DMSO. Cells were treated as described. Cell lysates were immunoblotted with antibodies against phospho-Smad3, Smad3, phospho-Smad2, Smad2.
NRK52E cells were cultured in DMEM-Ham's medium supplemented with 10% fetal bovine serum. The cells reached at approximately 50% confluence were used for in vitro experiments. Cells were serum-starved for 12 h, and randomized into 8 groups: (1) Controls; (2) GQ-5 only; (3) TGF-β1 0.5 h; (4) TGF-β1 0.5 h+GQ-5; (5) TGF-β1 1.0 h; (6) TGF-β1 1.0 h+GQ-5; (7) TGF-β1 3.0 h; (8) TGF-β1 3.0 h+GQ-5;
(4) TGF-β1 0.5 h+GQ-5: pre-treated with GQ-5 (2.5 μM) for 1 h, followed with TGF-β1 (10 ng/ml) for 0.5 h
(6) TGF-β1 1.0 h+GQ-5: pre-treated with GQ-5 (2.5 μM) for 1 h, followed with TGF-β1 (10 ng/ml) for 1.0 h
(8) TGF-β1 3.0 h+GQ-5: pre-treated with GQ-5 (2.5 μM) for 1 h, followed with TGF-β1 (10 ng/ml) for 3.0 h
GQ-5 was dissolved in DMSO. Cells were treated as described. Cell lysates were immunoblotted with antibodies against phospho-Smad3, Smad3, phospho-Smad2, and Smad2.

The next experiment relates to UUO rats. Nature of the experiment: Renal interstitial fibrosis after UUO (HE and Masson trichrome staining). Type of experiment: in vivo, rat. Particulars: GQ-5 40 mg/kg daily i.p. initiating right after or 7 days after operation, sacrificed day 14. As for the experimental part:
(§8) Male Sprague-Dawley rats were randomized into 4 groups (n=6 in each group): (1) sham operated rats; (2) UUO rats; (3) UUO+GQ-5 d1 rats; (4) UUO+GQ-5 d7 rats.
as §3, §5, §6
(§9) UUO was performed using an established protocol as described. GQ-5 was dissolved in 5% propylene glycol. Rats were administrated with GQ-5 as described before. All the rats were sacrificed 14 days after UUO. HE staining, Masson trichrome staining were performed to examine the renal tissue injury, and Real-time PCR analyses, immunohistochemical staining, and Western blot analyses were performed to examine α-SMA, collagen I and fibronectin expression in kidney tissue

For another experiment, the system named is α-SMA. Put plainly: α-SMA expression in UUO kidney tissue (real-time PCR, immunohistochemistry, Western blot). Type of experiment: in vivo, rat. Particulars: UUO rats, GQ-5 40 mg/kg daily i.p., sacrificed day 14. As for the experimental part:
as §8, §3, §5, §6, §9
For orientation: Quantitative PCR measures a nucleic acid by following its amplification.

The next experiment has as its system fibronectin. Nature of the experiment: Fibronectin expression in UUO kidney tissue (real-time PCR, immunohistochemistry, Western blot). Type of experiment: in vivo, rat. Particulars: UUO rats, GQ-5 40 mg/kg daily i.p., sacrificed day 14. As for the experimental part:
as §8, §3, §5, §6, §9

Experiment [2] concerns Smad3 phosphorylation. Nature of the experiment: Smad3 phosphorylation in kidney tissue of UUO rats (immunohistochemistry, Western blot). Type of experiment: in vivo, rat. Particulars: GQ-5 40 mg/kg daily i.p. right after or 7 days after UUO, sacrificed day 14. As for the experimental part: as §4, §3, §5, §6, §7

Take `CCCCCC/C=C\CCCCCCCc1cccc(O)c1O` [GQ-5, 3-[(Z)-pentadec-8-enyl]catechol]: the “protein expression of Smad7” value with Smad7 is on record as “did not affect”. Further, the “phosphorylation of PI3K” value in the experiment with PI3K is reported as “did not affect”. Besides, the “Smad2 phosphorylation in renal tissue” value in the experiment with Smad2 phosphorylation is listed as “not Smad2”. In addition, the “inhibitory effect in the absence of TGF-β1 stimulation” value in the experiment with Smad3 phosphorylation [1] (NRK52E and NRK49F cells, GQ-5 2.5 μM only) is listed as “almost undetectable”. Also, the “TGF-β1-induced Smad3 phosphorylation, dose dependence” value with Smad3 phosphorylation [1] (NRK52E and NRK49F cells, GQ-5 0.1, 0.5, 2.5 μM pre-treated 1 h, TGF-β1 10 ng/ml 1 h) is reported as “attenuated TGF-β1-induced Smad3 phosphorylation in a dose-dependent manner”. Further, the “TGF-β1-induced Smad3 phosphorylation, time dependence” value with Smad3 phosphorylation [1] (NRK52E cells, GQ-5 2.5 μM pre-treated 1 h, TGF-β1 10 ng/ml 0.5, 1.0, 3.0 h) was “attenuated TGF-β1-induced Smad3 phosphorylation in a time-dependent manner”. Besides, in the experiment on UUO rats, the inflammatory cell infiltration result was “significantly reduced” and the interstitial fibrosis score entry was “significantly reduced”. For the same compound, in the experiment with α-SMA, the “up-regulation of α-SMA at both mRNA and protein level” value is on record as “significantly inhibited”. Further, the “up-regulation of fibronectin at both mRNA and protein level” value in the experiment on fibronectin is listed as “significantly inhibited”. In addition, the “Smad3 phosphorylation in renal tissue” value with Smad3 phosphorylation [2] was “significantly inhibited”.
